Reference: the kinase profiling compilation of Christmann-Franck et al. (2016)

Key:
Assay in all cases: radiometric filter-binding kinase assay
[1] = biological target: MARK4 (human) (UniProt Q96L34)
[2] = biological target: INSR (human) (UniProt P06213)
[3] = biological target: EEF2K (human) (UniProt O00418)
[4] = biological target: MELK (human) (UniProt Q14680)
[5] = biological target: MAP2K2 (human) (UniProt P36507)
[6] = biological target: MAP3K11 (human) (UniProt Q16584)
[7] = biological target: GSK3B (human) (UniProt P49841)
Sequence of GSK3B (human) (P49841 whole entry, looked up): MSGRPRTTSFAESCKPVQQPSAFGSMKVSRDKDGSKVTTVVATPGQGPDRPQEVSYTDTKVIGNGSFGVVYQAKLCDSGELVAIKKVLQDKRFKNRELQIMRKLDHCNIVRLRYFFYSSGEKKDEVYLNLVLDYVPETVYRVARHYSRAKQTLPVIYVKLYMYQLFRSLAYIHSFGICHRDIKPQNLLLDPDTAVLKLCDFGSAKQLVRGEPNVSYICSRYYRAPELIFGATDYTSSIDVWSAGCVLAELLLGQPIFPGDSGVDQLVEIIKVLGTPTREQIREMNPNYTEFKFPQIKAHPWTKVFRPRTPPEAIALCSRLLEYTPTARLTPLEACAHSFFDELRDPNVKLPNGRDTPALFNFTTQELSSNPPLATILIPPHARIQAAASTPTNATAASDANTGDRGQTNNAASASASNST

[8] = biological target: IRAK4 (human) (UniProt Q9NWZ3)
[9] = biological target: BRSK1 (human) (UniProt Q8TDC3)
Sequence of BRSK1 (human) (Q8TDC3 whole entry, looked up): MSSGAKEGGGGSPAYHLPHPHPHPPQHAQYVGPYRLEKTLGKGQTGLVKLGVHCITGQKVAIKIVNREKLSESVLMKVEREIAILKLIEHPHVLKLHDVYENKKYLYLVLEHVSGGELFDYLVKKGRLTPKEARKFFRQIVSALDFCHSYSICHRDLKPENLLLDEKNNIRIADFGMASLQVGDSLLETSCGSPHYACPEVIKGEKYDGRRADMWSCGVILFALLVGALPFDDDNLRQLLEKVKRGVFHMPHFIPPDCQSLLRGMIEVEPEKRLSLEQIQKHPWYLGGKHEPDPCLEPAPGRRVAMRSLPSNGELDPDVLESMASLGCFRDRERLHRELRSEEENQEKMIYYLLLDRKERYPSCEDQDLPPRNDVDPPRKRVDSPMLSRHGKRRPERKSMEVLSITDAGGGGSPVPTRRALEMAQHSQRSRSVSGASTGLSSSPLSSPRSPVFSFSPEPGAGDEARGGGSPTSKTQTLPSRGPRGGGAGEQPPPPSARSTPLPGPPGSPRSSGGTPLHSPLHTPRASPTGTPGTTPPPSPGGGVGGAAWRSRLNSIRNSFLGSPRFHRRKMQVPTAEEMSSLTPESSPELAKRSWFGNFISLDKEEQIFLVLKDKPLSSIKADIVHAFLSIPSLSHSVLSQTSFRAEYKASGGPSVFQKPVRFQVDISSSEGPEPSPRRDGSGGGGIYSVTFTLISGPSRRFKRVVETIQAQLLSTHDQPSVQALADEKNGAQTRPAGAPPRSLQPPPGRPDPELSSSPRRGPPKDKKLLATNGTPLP

[10] = biological target: MAPK9 (human) (UniProt P45984)
[11] = biological target: MAP3K1 (human) (UniProt Q13233)
[12] = biological target: ERBB4 (human) (UniProt Q15303)
[13] = biological target: PIM1 (human) (UniProt P11309)
[14] = biological target: AURKA (human) (UniProt O14965)
[15] = biological target: PKN2 (human) (UniProt Q16513)
[16] = biological target: MAPKAPK2 (human) (UniProt P49137)
[17] = biological target: MAP2K6 (human) (UniProt P52564)
Sequence of MAP2K6 (human) (P52564 whole entry, looked up): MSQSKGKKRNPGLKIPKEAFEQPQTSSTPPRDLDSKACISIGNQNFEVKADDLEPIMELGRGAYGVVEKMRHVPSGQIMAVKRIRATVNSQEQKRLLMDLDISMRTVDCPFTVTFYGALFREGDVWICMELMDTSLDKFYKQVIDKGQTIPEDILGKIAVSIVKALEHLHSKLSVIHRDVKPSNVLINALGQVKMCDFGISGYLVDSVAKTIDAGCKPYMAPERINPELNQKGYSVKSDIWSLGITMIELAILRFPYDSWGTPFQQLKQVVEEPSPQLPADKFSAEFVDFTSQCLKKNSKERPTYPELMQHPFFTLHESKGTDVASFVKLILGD

[18] = biological target: DYRK2 (human) (UniProt Q92630)
Sequence of DYRK2 (human) (Q92630 whole entry, looked up): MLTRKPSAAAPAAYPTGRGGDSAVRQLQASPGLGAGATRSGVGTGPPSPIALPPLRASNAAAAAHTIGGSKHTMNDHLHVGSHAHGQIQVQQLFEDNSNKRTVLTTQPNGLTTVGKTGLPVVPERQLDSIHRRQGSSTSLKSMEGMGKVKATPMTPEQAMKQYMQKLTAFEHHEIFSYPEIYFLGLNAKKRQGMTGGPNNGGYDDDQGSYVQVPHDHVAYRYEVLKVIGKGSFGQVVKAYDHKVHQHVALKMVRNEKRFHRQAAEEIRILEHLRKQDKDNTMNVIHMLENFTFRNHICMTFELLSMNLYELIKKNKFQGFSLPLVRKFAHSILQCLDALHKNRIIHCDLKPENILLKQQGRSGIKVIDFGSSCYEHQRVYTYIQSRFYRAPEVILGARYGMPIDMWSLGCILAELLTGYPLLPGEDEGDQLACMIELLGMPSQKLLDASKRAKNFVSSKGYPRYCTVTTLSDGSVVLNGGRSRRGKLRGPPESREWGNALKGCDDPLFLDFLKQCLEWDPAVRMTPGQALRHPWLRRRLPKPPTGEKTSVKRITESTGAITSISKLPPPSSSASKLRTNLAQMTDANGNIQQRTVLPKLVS

[19] = biological target: MAP3K9 (human) (UniProt P80192)
[20] = biological target: NTRK1 (human) (UniProt P04629)
Sequence of NTRK1 (human) (P04629 whole entry, looked up): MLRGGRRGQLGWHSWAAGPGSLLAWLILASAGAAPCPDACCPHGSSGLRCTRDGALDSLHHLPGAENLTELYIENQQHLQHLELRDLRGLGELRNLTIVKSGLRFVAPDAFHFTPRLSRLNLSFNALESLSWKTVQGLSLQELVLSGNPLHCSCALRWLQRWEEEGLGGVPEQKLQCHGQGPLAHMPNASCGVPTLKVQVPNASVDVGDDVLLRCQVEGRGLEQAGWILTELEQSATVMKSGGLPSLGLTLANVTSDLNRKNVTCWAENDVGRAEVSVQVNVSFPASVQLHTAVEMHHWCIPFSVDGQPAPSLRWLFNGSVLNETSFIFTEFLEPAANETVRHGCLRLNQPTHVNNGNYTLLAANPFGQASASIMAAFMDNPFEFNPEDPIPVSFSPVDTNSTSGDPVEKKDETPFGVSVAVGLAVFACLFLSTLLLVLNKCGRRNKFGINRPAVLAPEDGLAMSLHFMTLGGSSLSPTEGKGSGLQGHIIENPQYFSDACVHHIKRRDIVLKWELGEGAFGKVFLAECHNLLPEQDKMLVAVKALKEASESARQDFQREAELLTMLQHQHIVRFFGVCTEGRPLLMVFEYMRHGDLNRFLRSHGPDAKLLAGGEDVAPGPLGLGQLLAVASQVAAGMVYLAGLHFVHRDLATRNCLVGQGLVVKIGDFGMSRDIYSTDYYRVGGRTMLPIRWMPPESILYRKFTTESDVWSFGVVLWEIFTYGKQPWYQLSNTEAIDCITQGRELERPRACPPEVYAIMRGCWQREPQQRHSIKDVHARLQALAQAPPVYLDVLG

[21] = biological target: MAPK12 (human) (UniProt P53778)
Sequence of MAPK12 (human) (P53778 whole entry, looked up): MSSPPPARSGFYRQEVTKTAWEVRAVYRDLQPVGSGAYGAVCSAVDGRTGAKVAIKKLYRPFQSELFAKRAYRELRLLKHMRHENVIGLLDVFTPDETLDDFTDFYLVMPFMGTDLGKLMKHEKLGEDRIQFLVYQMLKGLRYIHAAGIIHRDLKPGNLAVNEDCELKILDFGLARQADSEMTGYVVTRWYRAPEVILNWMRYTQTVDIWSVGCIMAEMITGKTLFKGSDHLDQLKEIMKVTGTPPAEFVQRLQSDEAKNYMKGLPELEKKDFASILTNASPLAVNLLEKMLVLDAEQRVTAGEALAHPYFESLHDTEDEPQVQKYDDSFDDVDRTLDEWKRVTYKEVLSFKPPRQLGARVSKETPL

[22] = biological target: STK11 CAB39 STRADA (human) (UniProt Q9Y376+Q7RTN6+Q15831)
[23] = biological target: EPHA2 (human) (UniProt P29317)
[24] = biological target: HIPK3 (human) (UniProt Q9H422)
[25] = biological target: MARK1 (human) (UniProt Q9P0L2)
[26] = biological target: MST4 (human) (UniProt Q9P289)
Sequence of MST4 (human) (Q9P289 whole entry, looked up): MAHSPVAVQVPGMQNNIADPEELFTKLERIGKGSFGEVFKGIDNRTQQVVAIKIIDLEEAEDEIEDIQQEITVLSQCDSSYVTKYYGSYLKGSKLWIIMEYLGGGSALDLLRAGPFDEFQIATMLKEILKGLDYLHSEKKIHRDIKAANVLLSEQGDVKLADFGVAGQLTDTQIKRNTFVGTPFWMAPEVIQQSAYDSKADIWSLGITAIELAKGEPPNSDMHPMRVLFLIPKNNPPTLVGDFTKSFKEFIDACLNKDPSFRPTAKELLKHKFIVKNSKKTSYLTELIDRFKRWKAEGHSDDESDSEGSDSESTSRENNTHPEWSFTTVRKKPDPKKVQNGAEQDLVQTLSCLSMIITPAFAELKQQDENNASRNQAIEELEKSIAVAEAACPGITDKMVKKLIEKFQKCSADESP

[27] = biological target: MAP3K7 TAB1 (human) (UniProt Q15750+O43318)
[28] = biological target: PAK6 (human) (UniProt Q9NQU5)
[29] = biological target: NUAK1 (human) (UniProt O60285)
[30] = biological target: PRKCA (human) (UniProt P17252)
[31] = biological target: MARK2 (human) (UniProt Q7KZI7)
[32] = biological target: PRKCZ (human) (UniProt Q05513)
Sequence of PRKCZ (human) (Q05513 whole entry, looked up): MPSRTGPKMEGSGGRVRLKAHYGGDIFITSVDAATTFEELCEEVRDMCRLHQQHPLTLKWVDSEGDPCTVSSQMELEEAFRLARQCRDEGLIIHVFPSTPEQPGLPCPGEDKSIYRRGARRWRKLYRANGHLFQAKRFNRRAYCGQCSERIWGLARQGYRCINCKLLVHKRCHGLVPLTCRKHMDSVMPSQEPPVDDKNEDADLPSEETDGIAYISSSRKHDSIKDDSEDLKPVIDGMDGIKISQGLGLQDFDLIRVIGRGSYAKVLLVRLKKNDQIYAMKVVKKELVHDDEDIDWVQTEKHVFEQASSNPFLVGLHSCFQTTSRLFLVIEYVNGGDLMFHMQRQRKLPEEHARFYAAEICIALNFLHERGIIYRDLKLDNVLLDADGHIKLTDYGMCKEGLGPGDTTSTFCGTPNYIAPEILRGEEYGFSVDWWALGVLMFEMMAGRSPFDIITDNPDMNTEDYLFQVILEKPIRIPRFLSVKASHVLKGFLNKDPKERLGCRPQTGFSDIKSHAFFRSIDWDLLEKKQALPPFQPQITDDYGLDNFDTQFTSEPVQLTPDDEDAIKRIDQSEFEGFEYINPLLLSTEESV

[33] = test system: AKT1 (human), P31749 [S473D]
[34] = biological target: PAK4 (human) (UniProt O96013)
[35] = biological target: MAP3K5 (human) (UniProt Q99683)
[36] = biological target: EPHB3 (human) (UniProt P54753)

NC1(c2ccc(-c3nc4ccn5c(=O)[nH]nc5c4cc3-c3ccccc3)cc2)CCC1
residual activity ([1]; compound 0.1 µM): 98%
residual activity ([1]; compound 1.0 µM): 102%
residual activity ([1]; compound 10.0 µM): 92%
residual activity ([2]; compound 1.0 µM): 79%
residual activity ([2]; compound 10.0 µM): 83%
residual activity ([3]; compound 0.1 µM): 101%
residual activity ([3]; compound 1.0 µM): 104%
residual activity ([3]; compound 10.0 µM): 109%
residual activity ([4]; compound 0.1 µM): 80%
residual activity ([4]; compound 1.0 µM): 75%
residual activity ([4]; compound 10.0 µM): 80%
residual activity ([5]; compound 0.1 µM): 103%
residual activity ([5]; compound 1.0 µM): 99%
residual activity ([5]; compound 10.0 µM): 90%
residual activity ([6]; compound 0.1 µM): 103%
residual activity ([6]; compound 1.0 µM): 97%
residual activity ([6]; compound 10.0 µM): 81%
residual activity ([7]; compound 0.1 µM): 104%
residual activity ([7]; compound 1.0 µM): 85%
residual activity ([7]; compound 10.0 µM): 72%
residual activity ([8]; compound 0.1 µM): 106%
residual activity ([8]; compound 1.0 µM): 92%
residual activity ([8]; compound 10.0 µM): 99%
residual activity ([9]; compound 0.1 µM): 115%
residual activity ([9]; compound 1.0 µM): 112%
residual activity ([9]; compound 10.0 µM): 87%
residual activity ([10]; compound 0.1 µM): 83%
residual activity ([10]; compound 1.0 µM): 94%
residual activity ([10]; compound 10.0 µM): 97%
residual activity ([11]; compound 0.1 µM): 114%
residual activity ([11]; compound 1.0 µM): 101%
residual activity ([11]; compound 10.0 µM): 83%
residual activity ([12]; compound 0.1 µM): 111%
residual activity ([12]; compound 1.0 µM): 95%
residual activity ([13]; compound 0.1 µM): 102%
residual activity ([13]; compound 1.0 µM): 93%
residual activity ([13]; compound 10.0 µM): 68%
residual activity ([14]; compound 0.1 µM): 114%
residual activity ([14]; compound 1.0 µM): 89%
residual activity ([14]; compound 10.0 µM): 93%
residual activity ([15]; compound 0.1 µM): 95%
residual activity ([15]; compound 1.0 µM): 96%
residual activity ([15]; compound 10.0 µM): 92%
residual activity ([16]; compound 0.1 µM): 99%
residual activity ([16]; compound 1.0 µM): 110%
residual activity ([16]; compound 10.0 µM): 88%
residual activity ([17]; compound 0.1 µM): 109%
residual activity ([17]; compound 1.0 µM): 98%
residual activity ([17]; compound 10.0 µM): 104%
residual activity ([18]; compound 0.1 µM): 96%
residual activity ([18]; compound 1.0 µM): 96%
residual activity ([18]; compound 10.0 µM): 87%
residual activity ([19]; compound 0.1 µM): 110%
residual activity ([19]; compound 1.0 µM): 93%
residual activity ([20]; compound 0.1 µM): 107%
residual activity ([20]; compound 1.0 µM): 90%
residual activity ([20]; compound 10.0 µM): 87%
residual activity ([21]; compound 0.1 µM): 94%
residual activity ([21]; compound 1.0 µM): 94%
residual activity ([21]; compound 10.0 µM): 101%
residual activity ([22]; compound 0.1 µM): 102%
residual activity ([22]; compound 1.0 µM): 85%
residual activity ([22]; compound 10.0 µM): 86%
residual activity ([23]; compound 0.1 µM): 86%
residual activity ([23]; compound 1.0 µM): 95%
residual activity ([23]; compound 10.0 µM): 87%
residual activity ([24]; compound 0.1 µM): 117%
residual activity ([24]; compound 1.0 µM): 100%
residual activity ([24]; compound 10.0 µM): 100%
residual activity ([25]; compound 0.1 µM): 113%
residual activity ([25]; compound 1.0 µM): 88%
residual activity ([25]; compound 10.0 µM): 98%
residual activity ([26]; compound 0.1 µM): 95%
residual activity ([26]; compound 1.0 µM): 103%
residual activity ([26]; compound 10.0 µM): 105%
residual activity ([27]; compound 0.1 µM): 81%
residual activity ([27]; compound 1.0 µM): 107%
residual activity ([27]; compound 10.0 µM): 49%
residual activity ([28]; compound 0.1 µM): 85%
residual activity ([28]; compound 1.0 µM): 100%
residual activity ([28]; compound 10.0 µM): 91%
residual activity ([29]; compound 0.1 µM): 101%
residual activity ([29]; compound 1.0 µM): 102%
residual activity ([30]; compound 0.1 µM): 97%
residual activity ([30]; compound 1.0 µM): 94%
residual activity ([30]; compound 10.0 µM): 98%
residual activity ([31]; compound 0.1 µM): 102%
residual activity ([31]; compound 1.0 µM): 97%
residual activity ([31]; compound 10.0 µM): 94%
residual activity ([32]; compound 0.1 µM): 97%
residual activity ([32]; compound 1.0 µM): 105%
residual activity ([32]; compound 10.0 µM): 97%
residual activity ([33]; compound 0.1 µM): 103%
residual activity ([33]; compound 1.0 µM): 96%
residual activity ([33]; compound 10.0 µM): 75%
residual activity ([34]; compound 0.1 µM): 75%
residual activity ([34]; compound 1.0 µM): 78%
residual activity ([34]; compound 10.0 µM): 66%
residual activity ([35]; compound 0.1 µM): 97%
residual activity ([35]; compound 1.0 µM): 87%
residual activity ([35]; compound 10.0 µM): 90%
residual activity ([36]; compound 0.1 µM): 112%
residual activity ([36]; compound 1.0 µM): 99%
residual activity ([36]; compound 10.0 µM): 105%
